According to ChEMBL document CHEMBL5729205, “Rho-associated protein kinase inhibitor, pharmaceutical composition comprising same, and preparation method and use thereof” (2022):

Molecular target: Rho-associated protein kinase 2 (Homo sapiens, UniProt O75116)
Experiment: Biological Assay: The kinase IC50 was determined by a commercialized CISBIO kinase detection kit, HTRF KinEASE-STK S2 kit (62ST2PEC). ROCK2 (01-119) employed in the reaction was purchased from Carna Biosciences.Before the assay, the following working solutions as needed were formulated with corresponding reagents according to the instruction of the kinase detection kit: 1×kinase buffer, 5×STK-52 substrate working solution (1.5 μM) and 5×ATP working solution (1.5 μM), 5×ROCK2 kinase working solution, 4×Streptavidin-XL665 working solution, and 4×STK-Ab-Cryptate 2 detection solution. Then the assay was performed according to the following procedure.A solution of a compound at a concentration of 10000 nM was prepared with the 1×kinase buffer containing 2.5% DMSO. Gradient dilution of the solution of the compound was performed with the kinase buffer containing DMSO, so as to obtain solutions of a test compound at 9 different concentrations. In addition to wells of test compounds, a positive well (containing all the reagents except the compound) and a negative well (containing all the reagents except the test compound and kinase) were set. Except for the control wells (positive and negative wells), a solution of a test compound (4 μL) was added to each of the reaction wells, and a solution of 2.5% DMSO was added to the control wells. Then the substrate (2 μM, i.e., 2 μL. 5×STK-S2 substrate working solution) was added to each of the reaction wells. The 5×ROCK2 kinase working solution (2 μL, containing 1.4 ng ROCK2 kinase) was added to each of the reaction wells except for the negative well, the volume of which was made up with the 1×kinase buffer (2 μL). The 5×ATP working solution (2 μL) was added to each of the reaction wells, and the mixtures were incubated at room temperature for 2 hours. After the kinase reaction was complete, the 4×Streptavidin-XL665 working solution was added to each of the reaction wells, the solutions were mixed, followed by immediate addition of the 4×STK-Ab-Cryptate 2 detection solution (5 μL), and the mixtures were incubated at room temperature for 1 hour. The fluorescence signal was read on ENVISION (Perkinelmer) (excitation wavelength: 320 nm, and emission wavelength: 665 nm and 615 nm). The inhibitory rate in each well was calculated based on the fluorescence intensity value: ER (Emission Ratio)=(fluorescence intensity at 665 nm/fluorescence intensity at 615 nm); inhibitory rate=(ERpositive−ERtest compound)/(ERpositive−ERnegative)*100%. Curves were plotted and fitted to obtain the median inhibitory concentration (IC50) of each teat compound with the PRISM 5.0 software.

Rho-associated protein kinase 2, sequence (O75116 whole entry): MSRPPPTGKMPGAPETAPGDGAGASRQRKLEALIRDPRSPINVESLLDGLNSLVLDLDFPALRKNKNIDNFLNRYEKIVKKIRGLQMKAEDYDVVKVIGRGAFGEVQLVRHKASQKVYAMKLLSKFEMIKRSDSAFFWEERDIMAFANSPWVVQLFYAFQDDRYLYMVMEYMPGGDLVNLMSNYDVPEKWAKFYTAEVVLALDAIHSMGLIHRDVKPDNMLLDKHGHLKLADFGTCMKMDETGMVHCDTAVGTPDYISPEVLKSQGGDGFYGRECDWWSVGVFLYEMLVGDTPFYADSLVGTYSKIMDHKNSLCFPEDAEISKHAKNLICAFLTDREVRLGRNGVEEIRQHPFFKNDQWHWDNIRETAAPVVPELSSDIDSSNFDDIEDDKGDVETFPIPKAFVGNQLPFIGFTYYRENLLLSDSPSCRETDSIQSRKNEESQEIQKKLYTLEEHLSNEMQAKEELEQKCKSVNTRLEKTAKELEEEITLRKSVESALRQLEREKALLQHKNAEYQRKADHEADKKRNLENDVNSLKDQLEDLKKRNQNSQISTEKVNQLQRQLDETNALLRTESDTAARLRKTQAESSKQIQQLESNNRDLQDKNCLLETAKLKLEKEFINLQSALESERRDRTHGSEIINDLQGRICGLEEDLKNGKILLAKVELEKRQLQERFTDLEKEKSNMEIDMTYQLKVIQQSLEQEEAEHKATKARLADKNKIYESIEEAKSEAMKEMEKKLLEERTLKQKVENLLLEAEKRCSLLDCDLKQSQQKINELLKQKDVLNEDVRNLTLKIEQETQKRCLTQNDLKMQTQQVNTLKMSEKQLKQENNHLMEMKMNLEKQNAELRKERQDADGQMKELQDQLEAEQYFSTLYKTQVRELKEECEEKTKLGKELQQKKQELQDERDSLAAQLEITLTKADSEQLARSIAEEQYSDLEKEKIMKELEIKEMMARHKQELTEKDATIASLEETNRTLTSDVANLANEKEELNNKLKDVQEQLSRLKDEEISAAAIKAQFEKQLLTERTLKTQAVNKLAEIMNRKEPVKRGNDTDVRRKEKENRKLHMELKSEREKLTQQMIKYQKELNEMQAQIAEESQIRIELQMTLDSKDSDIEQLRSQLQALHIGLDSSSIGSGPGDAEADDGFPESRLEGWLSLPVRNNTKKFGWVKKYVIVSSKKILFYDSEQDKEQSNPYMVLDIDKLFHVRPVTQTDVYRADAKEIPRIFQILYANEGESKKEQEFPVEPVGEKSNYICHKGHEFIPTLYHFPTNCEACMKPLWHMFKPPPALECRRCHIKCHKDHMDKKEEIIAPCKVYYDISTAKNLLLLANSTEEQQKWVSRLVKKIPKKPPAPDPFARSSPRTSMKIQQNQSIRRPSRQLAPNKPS

Compound | IC50 [nM]
Cn1c(C(=O)N2CC(F)(F)C2)cc2ccc(-c3nc(Nc4ccc(-c5cn[nH]c5)cc4)c4occc4n3)cc21 | 80
Cc1[nH]ncc1-c1ccc(Nc2nc(-c3ccc4c(c3)CN(C(=O)C3CC(F)(F)C3)C4)ncc2F)cc1 | 93
Cn1c(C(=O)N2CC(F)(F)C2)cc2ccc(-c3nccc(Nc4ccc(-c5cn[nH]c5)cn4)n3)cc21 | 39
COCn1c(C(=O)N2CC(F)(F)C2)cc2ccc(-c3ncnc(Nc4ccc(-c5cn[nH]c5)cc4)n3)cc21 | 427
COc1cc(-c2cn[nH]c2)ccc1Nc1ccnc(-c2ccc3c(c2)CN(C(=O)C2CC(F)(F)C2)C3)n1 | 21
O=C(C1CC(F)(F)C1)N1CCc2cc(-c3nccc(Nc4ccc(-c5cn[nH]c5)cc4)n3)ccc2C1 | 130
O=C(C1CC(F)(F)C1)N1CCc2ccc(-c3nccc(Nc4ccc(-c5cn[nH]c5)cc4)n3)cc2C1 | 214
O=C(C1CC(F)(F)C1)N1Cc2ccc(-c3nc(Nc4ccc(-c5cn[nH]c5)cc4)c4sccc4n3)cc2C1 | 60
O=C(OC1CC(F)(F)C1)N1Cc2ccc(-c3ncc(F)c(Nc4ccc(-c5cn[nH]c5)cc4)n3)cc2C1 | 69
O=C(NC1CCN(c2ccncc2Cl)CC1)c1cc2ccc(-c3nccc(Nc4ccc5[nH]ncc5c4)n3)cc2[nH]1 | 14
O=C(C1CC(F)(F)C1)N1Cc2ccc(-c3nc(Nc4ccc5[nH]ncc5c4)c4sccc4n3)cc2C1 | 129
O=C(C1CCOCC1)N1Cc2ccc(-c3ncc(F)c(Nc4ccc(-c5cn[nH]c5)cc4)n3)cc2C1 | 162
CN1Cc2nc(-c3ccc4c(c3)CN(C(=O)C3CC(F)(F)C3)C4)nc(Nc3ccc(-c4cn[nH]c4)cc3)c2C1 | 40
COCn1c(C(=O)N2CC(F)(F)C2)cc2ccc(-c3nc4c(c(Nc5ccc(-c6cn[nH]c6)cc5)n3)CNC4)cc21 | 27
CN1Cc2nc(-c3ccc4cc(C(=O)N5CC(F)(F)C5)n(C)c4c3)nc(Nc3ccc(-c4cn[nH]c4)cc3)c2C1 | 14
O=C(c1cc2ccc(-c3nccc(Nc4ccc(-c5cn[nH]c5)cc4)n3)cc2n1CC(F)F)N1CC(F)(F)C1 | 159
O=C(c1cc2ccc(-c3nccc(Nc4ccc(-c5cn[nH]c5)cc4)n3)cc2[nH]1)N1CCCC1 | 240
Cn1c(C(=O)N2CC(F)(F)C2)cc2ccc(-c3nccc(Nc4ccc(-c5cn[nH]c5)cc4O)n3)cc21 | 34
CC1(C(=O)N2CCc3ccc(-c4ncc(F)c(Nc5ccc(-c6cn[nH]c6)cc5)n4)cc3C2)CC(F)(F)C1 | 331
O=C(C1CC(F)(F)C1)N1Cc2ccc(-c3nc(Nc4ccc(-c5cn[nH]c5)cc4)c4[nH]ccc4n3)cc2C1 | 29
Cc1cnc(-c2ccc3cc(C(=O)N4CC(F)(F)C4)n(C)c3c2)nc1Nc1ccc(-c2cn[nH]c2)cc1 | 19
O=C(C1CCC(F)(F)CC1)N1CCc2ccc(-c3ncc(F)c(Nc4ccc(-c5cn[nH]c5)cc4)n3)cc2C1 | 477

Compound | IC50 [nM]
Cn1c(C(=O)N2CC(F)(F)C2)cc2ccc(-c3nc4c(c(Nc5ccc(-c6cn[nH]c6)cc5)n3)CNC4)cc21 | 4
O=C(Oc1ccccc1)N1Cc2ccc(-c3nccc(Nc4ccc(-c5cn[nH]c5)cc4)n3)cc2C1 | 114
O=C(c1ccncc1)N1Cc2ccc(-c3nccc(Nc4ccc(-c5cn[nH]c5)cc4)n3)cc2C1 | 313
O=C(N1CCc2ccc(-c3nccc(Nc4ccc(-c5cn[nH]c5)cc4)n3)cc2C1)N1CC(F)(F)C1 | 214
COc1cnc(-c2ccc3cc(C(=O)N4CC(F)(F)C4)[nH]c3c2)nc1Nc1ccc(-c2cn[nH]c2)cc1 | 23
N=C(N)N1CCC2(CC1)CCN(C(=O)c1cc3ccc(-c4nccc(Nc5ccc6[nH]ncc6c5)n4)cc3[nH]1)CC2 | 240
CC(C)NC(=O)c1cc2ccc(-c3nc(Cc4ccccc4)cc(Nc4ccc5[nH]ncc5c4)n3)cc2[nH]1 | 350
C[C@@H](NC(=O)c1cc2ccc(-c3nccc(Nc4ccc5[nH]ncc5c4)n3)cc2[nH]1)c1ccc(C(F)(F)F)nc1 | 90
COCn1c(C(=O)N2CC(F)(F)C2)cc2ccc(-c3ncc(F)c(Nc4ccc(-c5cn[nH]c5)cc4)n3)cc21 | 255
Cn1c(C(=O)N2CC(F)(F)C2)cc2ccc(-c3nccc(Nc4ccc(-c5cn[nH]c5)nc4)n3)cc21 | 27
O=C(C1CC(F)(F)C1)N1Cc2ccc(-c3cncc(Nc4ccc(-c5cn[nH]c5)cc4)n3)cc2C1 | 39
C#CC1CN(C(=O)c2cc3ccc(-c4nccc(Nc5ccc(-c6cn[nH]c6)cc5)n4)cc3n2C)C1 | 322
COCCn1c(C(=O)N2CC(F)(F)C2)cc2ccc(-c3nccc(Nc4ccc(-c5cn[nH]c5)cc4)n3)cc21 | 355
O=C(c1cccnc1)N1Cc2ccc(-c3nccc(Nc4ccc(-c5cn[nH]c5)cc4)n3)cc2C1 | 393
O=C(C1CC(F)(F)C1)N1Cc2ccc(-c3nc4c(c(Nc5ccc(-c6cn[nH]c6)cc5)n3)CNC4)cc2C1 | 10
O=C(OC1CC(F)(F)C1)N1Cc2ccc(-c3nccc(Nc4ccc5[nH]ncc5c4)n3)cc2C1 | 19
CCn1c(C(=O)N2CC(F)(F)C2)cc2ccc(-c3nccc(Nc4ccc(-c5cn[nH]c5)cc4)n3)cc21 | 118
Cn1c(C(=O)N2CC(F)(F)C2)cc2ccc(-c3nc4c(c(Nc5ccc(-c6cn[nH]c6)cc5)n3)COC4)cc21 | 10
Cn1ccc2nc(-c3ccc4cc(C(=O)N5CC(F)(F)C5)n(C)c4c3)nc(Nc3ccc(-c4cn[nH]c4)cc3)c21 | 76
CC1(C(=O)N2Cc3ccc(-c4nccc(Nc5ccc(-c6cn[nH]c6)cc5)n4)cc3C2)CC(F)(F)C1 | 22
O=C(c1cc2ccc(-c3nccc(Nc4ccc5[nH]ncc5c4)n3)cc2[nH]1)N1CC2CNCC2C1 (centres undefined) | 412
O=C(C1CC(F)(F)C1)N1Cc2ccc(-c3nc(Nc4ccc(-c5cn[nH]c5)cc4)c4occc4n3)cc2C1 | 18
